Measurements taken from US6852499B2, “Luciferase detection reagent kits and luciferase detection method using the kit” (Toyo Ink Mfg. Co., Ltd., priority 2002, dated 2005).

Target: T1, Coleoptera luciferase (Photinus pyralis, UniProt P08659)
T1 construct: purchased Toyo Ink Manufacturing Co., Ltd. PGL100
Experiment: luciferin/luciferase luminescent reaction with an added sulfur reagent, measured on a luminometer
Format: biochemical
Details: for RLU/200 (integrated quantity of light emitted for 200 seconds) / max RLU (maximum quantity of light emitted): 100 ng/mL luciferase; for max RLU (maximum quantity of light emitted): initial 200 seconds; for emission pattern (glow vs flash luminescence): reagent without thiol reagent, 200 seconds
Protocol: The luciferase used was one included in a commercially available kit (Toyo Ink Manufacturing Co., Ltd.; product No. PGL100).
A “luciferase luminescent reagent” containing 20 mM tricine, 1.07 mM (MgCO3)4Mg(OH)2·5H2O, 2.67 mM magnesium sulfate, 0.1 mM EDTA, 270 μM CoA, 470 μM luciferin and 530 μM adenosine triphosphate (ATP), pH 7.8 was prepared in accordance with the formulation described in the instructions included in “PicaGene Luminescent Kit” (Toyo Ink Manufacturing Co., Ltd.; product No. PGL100), except that 33.3 mM dithiothreitol (DTT) mentioned in the instructions was not added. To the “luciferase luminescent reagent” was added sodium diethyldithiocarbamate at final concentrations of 0 mM, 0.33 mM, 3.3 mM and 33.3 mM.
An enzyme solution containing 100 ng/mL of luciferase was collected in 10 μL in a measurement cuvette of a luminometer (Berthold, LB9506). To the enzyme solution was added 100 μL of each of the “luciferase luminescent reagents” prepared above. Immediately after the addition, the resulting mixed solution was loaded on the luminometer, and the quantity of light emitted was measured for the initial 200 seconds of the reagent addition to determine the maximum quantity of light emitted (RLU/sec) during the period of measurement and the integrated quantity of light emitted for 200 seconds (RLU/200 sec) (Table 2).
(§1) A “luciferase luminescent reagent” containing 20 mM tricine, 1.07 mM (MgCO3)4Mg(OH)2·5H2O, 2.67 mM magnesium sulfate, 0.1 mM EDTA, 270 μM CoA, 470 μM luciferin and 530 μM adenosine triphosphate (ATP), pH 7.8 was prepared in accordance with the formulation described in the instructions included in “PicaGene Luminescent Kit” (Toyo Ink Manufacturing Co., Ltd.; product No. PGL100), except that 33.3 mM dithiothreitol (DTT) mentioned in the instructions was not added.
A “luciferase luminescent reagent” containing 20 mM tricine, 1.07 mM (MgCO3)4Mg(OH)2·5H2O, 2.67 mM magnesium sulfate, 0.1 mM EDTA, 270 μM CoA, 470 μM luciferin and 530 μM adenosine triphosphate (ATP), pH 7.8 was prepared in accordance with the formulation described in the instructions included in “PicaGene Luminescent Kit” (Toyo Ink Manufacturing Co., Ltd.; product No. PGL100), except that 33.3 mM dithiothreitol (DTT) mentioned in the instructions was not added. To the “luciferase luminescent reagent” was added potassium xanthogenate at final concentrations of 0 mM, 0.33 mM 3.3 mM and 33.3 mM.
To the enzyme solution was added 100 μL of each of the “luciferase luminescent reagents” prepared above. Immediately after the addition, the resulting mixed solution was loaded on the luminometer, and the quantity of light emitted was measured for the initial 200 seconds of the reagent addition to determine the maximum quantity of light emitted (RLU/sec) during the period of measurement and the integrated quantity of light emitted for 200 seconds (RLU/200 sec) (Table 2).
A “luciferase luminescent reagent” containing 20 mM tricine, 1.07 mM (MgCO3)4Mg(OH)2·5H2O, 2.67 mM magnesium sulfate, 0.1 mM EDTA, 270 μM CoA, 470 μM luciferin and 530 μM adenosine triphosphate (ATP), pH 7.8 was prepared in accordance with the formulation described in the instructions included in “PicaGene Luminescent Kit” (Toyo Ink Manufacturing Co., Ltd.; product No. PGL100), except that 33.3 mM dithiothreitol (DTT) mentioned in the instructions was not added. To the “luciferase luminescent reagent” was added 2-mercaptobenzothiazole at final concentrations of 0 mM, 0.33 mM 3.3 mM and 33.3 mM.
as §1

T1 sequence (P08659 whole entry): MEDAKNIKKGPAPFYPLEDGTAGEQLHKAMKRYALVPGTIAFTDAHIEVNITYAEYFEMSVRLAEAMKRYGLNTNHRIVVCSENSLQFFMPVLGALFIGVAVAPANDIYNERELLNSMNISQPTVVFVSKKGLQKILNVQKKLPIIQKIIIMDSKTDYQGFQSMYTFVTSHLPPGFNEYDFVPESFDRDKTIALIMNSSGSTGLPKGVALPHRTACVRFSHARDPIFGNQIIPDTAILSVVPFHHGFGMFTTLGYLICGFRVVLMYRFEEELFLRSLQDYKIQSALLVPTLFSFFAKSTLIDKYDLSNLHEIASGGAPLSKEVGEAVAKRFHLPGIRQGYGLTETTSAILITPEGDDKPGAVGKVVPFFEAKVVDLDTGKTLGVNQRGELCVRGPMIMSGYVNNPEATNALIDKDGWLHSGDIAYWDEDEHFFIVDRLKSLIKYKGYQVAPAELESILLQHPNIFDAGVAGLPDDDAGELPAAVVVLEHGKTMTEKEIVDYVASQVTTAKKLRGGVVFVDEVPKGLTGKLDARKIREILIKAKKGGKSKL

Row | Compound | integrated quantity of light emitted (RLU/for 200 sec), dependence on concentration (0 to 33.3 mM) | change of the maximum quantity of light emitted (RLU/sec) as compared with the system containing no reagent (0 mM) (0.33 mM and 3.3 mM) | maximum quantity of light emitted relative to the value for the system without DTT (33.3 mM) [times] | RLU/200 (integrated quantity of light emitted for 200 seconds) (final concentration 0.33 mM) | max RLU (maximum quantity of light emitted) (final concentration 0.33 mM) | RLU/200 (integrated quantity of light emitted for 200 seconds) (final concentration 3.3 mM) | max RLU (maximum quantity of light emitted) (final concentration 3.3 mM) | RLU/200 (integrated quantity of light emitted for 200 seconds) (final concentration 33.3 mM) | max RLU (maximum quantity of light emitted) (final concentration 33.3 mM) | increase in the integrated quantity of light emitted (RLU/200 sec) as compared with the system containing no reagent (0 mM) (0.33 mM and 3.3 mM) | maximum and integrated quantity of light emitted relative to the system at a lower concentration (33.3 mM vs 3.3 mM) | emission pattern (glow vs flash luminescence) | change of the maximum quantity of light emitted (RLU/sec) as compared with the system containing no reagent (0 mM) (0.33 mM) | increase in the integrated quantity of light emitted (RLU/200 sec) as compared with the system containing no reagent (0 mM) (0.33 mM) | maximum and integrated quantity of light emitted relative to the system at a lower concentration (33.3 mM vs 0.33 mM) | maximum and integrated quantity of light emitted relative to the systems at lower concentrations (33.3 mM vs 0.33 mM, 3.3 mM)
1 | O[C@H](CS)[C@H](O)CS (racemic) [DTT, dithiothreitol, reference compound] | increased with increasing DTT concentration | little difference | 1.8 | 511,723,424 RLU/200 sec | 3,359,620 RLU/sec | 579,940,160 RLU/200 sec | 3,221,070 RLU/sec | 667,250,048 RLU/200 sec | 3,434,180 RLU/sec | – | – | – | – | – | – | –
2 | Sc1nc2ccccc2s1 [2-mercaptobenzothiazole] | – | increased only slightly | – | 492,116,224 RLU/200 sec | 3,267,710 RLU/sec | 622,578,816 RLU/200 sec | 3,410,350 RLU/sec | 421,084,568 RLU/200 sec | 2,603,090 RLU/sec | about 1.7 fold | nearly two-thirds | glow luminescence | – | – | – | –
3 | CCOC(=S)[S-].[K+] [Potassium xanthogenate, potassium xanthogenate] | – | – | – | 616,747,200 RLU/200 sec | 3,232,620 RLU/sec | 92,549,720 RLU/200 sec | 473,070 RLU/sec | 4,519,292 RLU/200 sec | 24,210 RLU/sec | – | – | glow luminescence | increased only slightly | about 1.7 fold | about one-thirteenth | –
4 | CCN(CC)C(=S)[S-].[Na+] [Sodium diethyldithiocarbamate, sodium diethyldithiocarbamate] | – | increased only slightly | – | 592,116,224 RLU/200 sec | 3,267,710 RLU/sec | 611,260,800 RLU/200 sec | 3,141,880 RLU/sec | 246,535,408 RLU/200 sec | 1,261,630 RLU/sec | about 1.7 fold | – | glow luminescence | – | – | – | about two-fifths
